{"source": "patent US7709444B2", "about": "“Echinocandin pharmaceutical formulations containing micelle-forming surfactants” (Pfizer Inc., priority 1999, dated 2010)", "key": {"[1]": {"assay": "Solubility studies of Com 6(a) in surfactant test solutions, reverse phase HPLC", "type": "physicochemical", "settings": "room temperature", "procedure": "Solubility studies were performed at room temperature by transferring 5 ml of test solution (surfactant in water optionally containing a bulking agent, a buffer or a stabilizing agent) and 50 mg of Com 6(a) into a glass test tube. The test tubes were agitated overnight and examined for excess solid. Test tubes containing excess solid were removed for analysis. […] All samples were allowed to stand 1 h, supernatant was removed, filtered and analyzed by reverse phase HPLC to determine the potency of Com 6(a) per Ml of solution."}, "[2]": {"assay": "Stability of solution formulations, related substances by reverse phase HPLC, storage at 40° C.", "type": "physicochemical", "procedure": "The stability of solution and freeze-dried formulations was evaluated by monitoring a sample of the formulation for the percent increase in related substances by reverse phase HPLC at initial, 2 weeks and 4 weeks of storage at 40° C."}}, "note": "*1 amine or outer side, *2 acyl side, *3 side chain or, on linkers, in order; H or OH if unused. Where a SMILES comes first, the peptide text is derived from it. Bridges are numbered along the chain shown (N, C = ends). [ ]: non-standard residue; d: D form. The star is where a group is joined. ξ: configuration not given here. pTerphenylCO(4''-OnC5H11) = CCCCCOc1ccc(-c2ccc(-c3ccc(C(=O)*)cc3)cc2)cc1; ξOrn(4,5-diOH) = O=C(C(CC(O)C(O)N[*:3])N[*:1])[*:2]; ξhTyr(βξ-OH,γξ-OH) = NC(C(=O)O)C(O)C(O)c1ccc(O)cc1; ξPro(3ξ-OH,4ξ-Me) = CC1CNC(C(=O)O)C1O; Hyp = O=C(O)[CH]1C[CH](O)CN1", "data": [{"smiles": "CCCCCOc1ccc(-c2ccc(-c3ccc(C(=O)NC4CC(O)C(O)NC(=O)C5C(O)C(C)CN5C(=O)C(C(C)O)NC(=O)C(C(O)C(O)c5ccc(O)cc5)NC(=O)C5CC(O)CN5C(=O)C(C(C)O)NC4=O)cc3)cc2)cc1", "note": "(stereo not drawn) [Compound 6(a)] ({pTerphenylCO(4''-OnC5H11)}-[ξOrn(4,5-diOH)]T[Hyp][ξhTyr(βξ-OH,γξ-OH)]T[ξPro(3ξ-OH,4ξ-Me)]; lactam 1-C; configuration not given here)", "values": [{"measurement": "Comp6(a) Potency (solubility)", "setting": "[1]; Poly 20 [5]/Poly 80 [5]", "value": 4.8, "unit": "mg/mL"}, {"measurement": "Comp6(a) Potency (solubility)", "setting": "[1]; Poly 20 [5]/Poly 80 [10]", "value": 8.0, "unit": "mg/mL"}, {"measurement": "Comp6(a) Potency (solubility)", "setting": "[1]; Poly 20 [5]/pluronic F68 [10]", "value": 1.13, "unit": "mg/mL"}, {"measurement": "Comp6(a) Potency (solubility)", "setting": "[1]; Poly 80 [5]", "value": 1, "unit": "mg/mL"}, {"measurement": "Comp6(a) Potency (solubility)", "setting": "[1]; Poly 80 [10]", "value": 4.4, "unit": "mg/mL"}, {"measurement": "Comp6(a) Potency (solubility)", "setting": "[1]; Poly 80 [15]", "value": 7.2, "unit": "mg/mL"}, {"measurement": "Comp6(a) Potency (solubility)", "setting": "[1]; Poly 80 [20]/sodium taurodeoxycholate [20]", "value": 43.12, "unit": "mg/mL"}, {"measurement": "Comp6(a) Potency (solubility)", "setting": "[1]; Poly 80 [25]", "value": 13.2, "unit": "mg/mL"}, {"measurement": "Comp6(a) Potency (solubility)", "setting": "[1]; Sur None", "value": "<0.1", "unit": "mg/mL"}, {"measurement": "Comp6(a) Potency (solubility)", "setting": "[1]; ethoxylated castor oil (cremophor EL) [25]", "value": 11.0, "unit": "mg/mL"}, {"measurement": "Percent Related Substances", "setting": "[2]; 6(a) 1 mg/ml, Poly 80(25), Ace(0.6), Man(50), 0 wks", "value": 3.15, "unit": "%"}, {"measurement": "Percent Related Substances", "setting": "[2]; 6(a) 1 mg/ml, Poly 80(25), Ace(0.6), Man(50), 2 wks", "value": 11.37, "unit": "%"}, {"measurement": "Percent Related Substances", "setting": "[2]; 6(a) 1 mg/ml, Poly 80(25), Ace(0.6), Man(50), 4 wks", "value": 19.44, "unit": "%"}, {"measurement": "Percent Related Substances", "setting": "[2]; 6(a) 1 mg/ml, Poly 80(25), Ace(3), Man(50), 0 wks", "value": 3.33, "unit": "%"}, {"measurement": "Percent Related Substances", "setting": "[2]; 6(a) 1 mg/ml, Poly 80(25), Ace(3), Man(50), 2 wks", "value": 12.20, "unit": "%"}, {"measurement": "Percent Related Substances", "setting": "[2]; 6(a) 1 mg/ml, Poly 80(25), Ace(3), Man(50), 4 wks", "value": 18.29, "unit": "%"}, {"measurement": "Percent Related Substances", "setting": "[2]; 6(a) 1 mg/ml, Poly 80(25), Ace(6), Man(50), 0 wks", "value": 3.27, "unit": "%"}, {"measurement": "Percent Related Substances", "setting": "[2]; 6(a) 1 mg/ml, Poly 80(25), Ace(6), Man(50), 2 wks", "value": 11.07, "unit": "%"}, {"measurement": "Percent Related Substances", "setting": "[2]; 6(a) 1 mg/ml, Poly 80(25), Ace(6), Man(50), 4 wks", "value": 19.59, "unit": "%"}, {"measurement": "Percent Related Substances", "setting": "[2]; 6(a) 1 mg/ml, Poly 80(25), Cit(1.9), Man(50), 0 wks", "value": 3.42, "unit": "%"}, {"measurement": "Percent Related Substances", "setting": "[2]; 6(a) 1 mg/ml, Poly 80(25), Cit(1.9), Man(50), 2 wks", "value": 8.91, "unit": "%"}, {"measurement": "Percent Related Substances", "setting": "[2]; 6(a) 1 mg/ml, Poly 80(25), Cit(1.9), Man(50), 4 wks", "value": 18.04, "unit": "%"}, {"measurement": "Percent Related Substances", "setting": "[2]; 6(a) 1 mg/ml, Poly 80(25), Cit(9.6), Man(50), 0 wks", "value": 3.36, "unit": "%"}, {"measurement": "Percent Related Substances", "setting": "[2]; 6(a) 1 mg/ml, Poly 80(25), Cit(9.6), Man(50), 2 wks", "value": 9.25, "unit": "%"}, {"measurement": "Percent Related Substances", "setting": "[2]; 6(a) 1 mg/ml, Poly 80(25), Cit(9.6), Man(50), 4 wks", "value": 17.29, "unit": "%"}, {"measurement": "Percent Related Substances", "setting": "[2]; 6(a) 1 mg/ml, Poly 80(25), Cit(19.2), Man(50), 0 wks", "value": 3.47, "unit": "%"}, {"measurement": "Percent Related Substances", "setting": "[2]; 6(a) 1 mg/ml, Poly 80(25), Cit(19.2), Man(50), 2 wks", "value": 9.70, "unit": "%"}, {"measurement": "Percent Related Substances", "setting": "[2]; 6(a) 1 mg/ml, Poly 80(25), Cit(19.2), Man(50), 4 wks", "value": 18.02, "unit": "%"}, {"measurement": "Percent Related Substances", "setting": "[2]; 6(a) 10 mg/ml, Poly 80(5) + Poly 20(20), Ace(6), 0 wks", "value": 2.67, "unit": "%"}, {"measurement": "Percent Related Substances", "setting": "[2]; 6(a) 10 mg/ml, Poly 80(5) + Poly 20(20), Ace(6), 2 wks", "value": 9.77, "unit": "%"}, {"measurement": "Percent Related Substances", "setting": "[2]; 6(a) 10 mg/ml, Poly 80(5) + Poly 20(20), Ace(6), 4 wks", "value": 15.57, "unit": "%"}, {"measurement": "Percent Related Substances", "setting": "[2]; 6(a) 10 mg/ml, Poly 80(15) + Poly 20(10), Ace(6), 0 wks", "value": 2.70, "unit": "%"}, {"measurement": "Percent Related Substances", "setting": "[2]; 6(a) 10 mg/ml, Poly 80(15) + Poly 20(10), Ace(6), 2 wks", "value": 10.55, "unit": "%"}, {"measurement": "Percent Related Substances", "setting": "[2]; 6(a) 10 mg/ml, Poly 80(15) + Poly 20(10), Ace(6), 4 wks", "value": 15.34, "unit": "%"}, {"measurement": "Percent Related Substances", "setting": "[2]; 6(a) 10 mg/ml, Poly 80(20) + Poly 20(5), Ace(6), 0 wks", "value": 2.65, "unit": "%"}, {"measurement": "Percent Related Substances", "setting": "[2]; 6(a) 10 mg/ml, Poly 80(20) + Poly 20(5), Ace(6), 2 wks", "value": 11.06, "unit": "%"}, {"measurement": "Percent Related Substances", "setting": "[2]; 6(a) 10 mg/ml, Poly 80(20) + Poly 20(5), Ace(6), 4 wks", "value": 15.44, "unit": "%"}, {"measurement": "Percent Related Substances", "setting": "[2]; 6(a) 10 mg/ml, Poly 80(25) only, no buffer, 0 wks", "value": 3.62, "unit": "%"}, {"measurement": "Percent Related Substances", "setting": "[2]; 6(a) 10 mg/ml, Poly 80(25) only, no buffer, 2 wks", "value": 18.71, "unit": "%"}, {"measurement": "Percent Related Substances", "setting": "[2]; 6(a) 10 mg/ml, Poly 80(25) only, no buffer, 4 wks", "value": 27.91, "unit": "%"}, {"measurement": "Percent Related Substances", "setting": "[2]; 6(a) 10 mg/ml, Poly 80(25), Ace(3), 0 wks", "value": 2.51, "unit": "%"}, {"measurement": "Percent Related Substances", "setting": "[2]; 6(a) 10 mg/ml, Poly 80(25), Ace(3), 2 wks", "value": 9.46, "unit": "%"}, {"measurement": "Percent Related Substances", "setting": "[2]; 6(a) 10 mg/ml, Poly 80(25), Ace(3), 4 wks", "value": 14.39, "unit": "%"}, {"measurement": "Percent Related Substances", "setting": "[2]; 6(a) 10 mg/ml, Poly 80(25), Ace(6), co-solvent 20% PEG400, 0 wks", "value": 2.83, "unit": "%"}, {"measurement": "Percent Related Substances", "setting": "[2]; 6(a) 10 mg/ml, Poly 80(25), Ace(6), co-solvent 20% PEG400, 2 wks", "value": 9.69, "unit": "%"}, {"measurement": "Percent Related Substances", "setting": "[2]; 6(a) 10 mg/ml, Poly 80(25), Ace(6), co-solvent 20% PEG400, 4 wks", "value": 14.35, "unit": "%"}, {"measurement": "Percent Related Substances", "setting": "[2]; 6(a) 10 mg/ml, Poly 80(25), Ace(6), co-solvent 20% PPG, 0 wks", "value": 2.71, "unit": "%"}, {"measurement": "Percent Related Substances", "setting": "[2]; 6(a) 10 mg/ml, Poly 80(25), Ace(6), co-solvent 20% PPG, 2 wks", "value": 10.58, "unit": "%"}, {"measurement": "Percent Related Substances", "setting": "[2]; 6(a) 10 mg/ml, Poly 80(25), Ace(6), co-solvent 20% PPG, 4 wks", "value": 13.40, "unit": "%"}, {"measurement": "Percent Related Substances", "setting": "[2]; 6(a) 10 mg/ml, Poly 80(25), Ace(6), co-solvent 40% PEG400, 0 wks", "value": 2.57, "unit": "%"}, {"measurement": "Percent Related Substances", "setting": "[2]; 6(a) 10 mg/ml, Poly 80(25), Ace(6), co-solvent 40% PEG400, 2 wks", "value": 10.38, "unit": "%"}, {"measurement": "Percent Related Substances", "setting": "[2]; 6(a) 10 mg/ml, Poly 80(25), Ace(6), co-solvent 40% PEG400, 4 wks", "value": 13.36, "unit": "%"}, {"measurement": "Percent Related Substances", "setting": "[2]; 6(a) 10 mg/ml, Poly 80(25), Ace(6), co-solvent 40% PPG, 0 wks", "value": 2.72, "unit": "%"}, {"measurement": "Percent Related Substances", "setting": "[2]; 6(a) 10 mg/ml, Poly 80(25), Ace(6), co-solvent 40% PPG, 2 wks", "value": 9.84, "unit": "%"}, {"measurement": "Percent Related Substances", "setting": "[2]; 6(a) 10 mg/ml, Poly 80(25), Ace(6), co-solvent 40% PPG, 4 wks", "value": 12.65, "unit": "%"}]}]}
